Tested on: sediment microcosms
Assay: Effect of TCC, TCS and BES on TCE dechlorination in sediment microcosms and cultures derived from them
Format: cell-based
Procedure: In this study, microcosm is defined as: anaerobic airtight serum bottles with sediment samples, anaerobic medium, electron donor, and a chlorinated compound used as an electron acceptor. Four microcosms were set up in the anaerobic glove chamber with H2 concentration of 3% (Coy laboratory products Inc. Grass Lake, Mich.). Ten gram of homogeneously mixed sediment from either core A or core D were transferred independently into a 160 ml sterile serum bottle, and 90 ml anaerobic media with vitamin solution and 2 mM lactate were added. One hundred μL of 20 mg/L TCC stock solution in methanol and 100 μL of 20 mg/L TCS stock solution were added by pipette (Eppendorf, Calif.) to two of the four microcosms. Microcosms were capped with thick black butyl rubber stoppers and aluminum crimps. 4.5 μL pure TCE was injected with airtight syringe (Hamilton Company, Reno, Nev.) into each serum bottle. On day 130, in order to inhibit methane production in the sediment microcosms, 25 mM BES was added in to sediment-A microcosm and sediment-D microcosm with TCC and TCS with airtight syringe (Hamilton Company, Reno, Nev.). Microcosms were stored in the dark and incubated at 30° C.
Production of Sediment-Free Cultures. To establish sediment-free cultures from core A and core D sediment microcosms, the microcosms were shaken vigorously, and the solids were allowed to settle down. Then, using 1-inch, 21-gauge sterile needles, […] liquid (10 ml) were transferred into 89 ml sterile medium with the following contents: anaerobic medium, ATCC vitamin mix, and vitamin B12, in 160-ml serum bottles. Then, 1 ml each of 500-mM lactate stock solution and 35-μL TCE stock solution (1 mol/L in methanol) were added to form a 100 ml culture in 160-ml serum bottle. Three sediment cultures were derived from each sediment microcosm, and 12 sediment-free cultures were produced (FIG. 1). For organizational purposes, we refer to the sediment-free cultures generated from sediment-A microcosms as SCA and the sediment free cultures generated from sediment-D microcosms as DehaloR̂2, in the figures herein, the DehaloR̂2 are referred to as “SCD”. Thus, the term “SCD” and DehaloR̂2 are used interchangeably herein as the composition “SCD” was renamed “DehaloR̂2” during the course of investigation. The sediment-free cultures were kept in the dark and incubated at 30° C. After all the chlorinated electron acceptors were consumed, the cultures were re-spiked with TCE and electron donors.
BES (2-bromoethanesulfonate) is an efficient inhibitor for the metabolism of methanogens in methanogenetic cultures because it is a structural analog and competitive inhibitor of coenzyme M, which is only found in methanogens (Dimarco et al., 1990; Sparling and Daniels, 1987). Different concentrations of BES have been used by researchers. […] In this study, in order to determine if the cause for incomplete reductive dechlorination was competition for electron donor between methanogens and TCE dechlorinating microorganisms in the microcosms, I added 25 mM BES, 70 μmol of TCE, and 5 mM lactate into two sediment microcosms, sediment-A and sediment-D with TCC and TCS. In two other sediment microcosms, I added 70 μmol of TCE and 5 mM lactate without BES.

For `O=S(=O)(O)CCBr` [BES, 2-bromoethanesulfonic acid], the “effect on TCE reductive dechlorination” value (25 mM BES) was “exerted some inhibition on TCE reductive dechlorination”, the methane production (25 mM BES, two sediment microcosms) was “no methane was produced” and the “effect on TCE dechlorination rates in sediment-free cultures” value (cultures from microcosms amended with TCC, TCS, BES) was “slow down TCE dechlorination rates”.

From patent publication US20120178147A1, “MICROBIAL CULTURES AND METHODS FOR ANAEROBIC BIOREMEDIATION” (priority 2009, published 2012)
